Reference: patent US20090022806A1, “Nanoparticle and polymer formulations for thyroid hormone analogs, antagonists and formulations and uses thereof” (priority 2006, published 2009)
Values joined by “and” are separate entries in the source; they are usually repeats but may differ in a detail not shown here. Equal values may be shown once.

Experiments:
[1] = tested on: citrated human whole blood; test: Thromboelastography (TEG) clot dynamics; settings: 25 ng TF + 2.25 mM Ca^+2 or 10 mM Ca^+2; n = 4
Method: Thromboelastography (TEG) has been used in various hospital settings since its development by Hartert in 1948. The principle of TEG is based on the measurement of the physical viscoelastic characteristics of blood clot. Clot formation was monitored at 37° C. in an oscillating plastic cylindrical cuvette (“cup”) and a coaxially suspended stationary piston (“pin”) with a 1 mm clearance between the surfaces, using a computerized Thrombelastograph (TEG Model 3000, Haemoscope, Skokie, Ill.). The cup oscillates in either direction every 4.5 seconds, with a 1 second mid-cycle stationary period; resulting in a frequency of 0.1 Hz and a maximal shear rate of 0.1 per second. The pin is suspended by a torsion wire that acts as a torque transducer. […] The torque experienced by the pin (relative to the cup's oscillation) is plotted as a function of time (FIG. 58).
TEG assesses coagulation by measuring various parameters such as the time latency for the initial initiation of the clot (R), the time to initiation of a fixed clot firmness (k) of about 20 mm amplitude, the kinetic of clot development as measured by the angle (α), and the maximum amplitude of the clot (MA). The parameter A measures the width of the tracing at any point of the MA. Amplitude A in mm is a function of clot strength or elasticity. The amplitude on the TEG tracing is a measure of the rigidity of the clot; the peak strength or the shear elastic modulus attained by the clot, G, is a function of clot rigidity and can be calculated from the maximal amplitude (MA) of the TEG tracing.
The following parameters were measured from the TEG tracing: • R, the reaction time (gelation time) represents the latent period before the establishment of a 3-dimensional fibrin gel network (with measurable rigidity of about 2 mm amplitude). • Maximum Amplitude (MA, in mm), is the peak rigidity manifested by the clot. • Shear elastic modulus or clot strength (G, dynes/cm^2) is defined by:
Blood was drawn from consenting volunteers under a protocol approved by the Human Investigations Committee of William Beaumont Hospital. Using the two syringe method, samples were drawn through a 21 gauge butterfly needle and the initial 3 ml blood was discarded.

[2] = tested on: chick chorioallantoic membrane (CAM); test: Chick chorioallantoic membrane (CAM) assay of angiogenesis; assay type: in vivo; settings: for effect on angiogenesis produced by T4: PTU applied to filter disks (1 mmol/L)
Method: Chorioallantoic membrane (CAM) Model of Angiogenesis: In vivo Neovascularization was examined by methods described previously. 9-12 Ten-day-old chick embryos were purchased from SPAFAS (Preston, Conn.) and incubated at 37° C. with 55% relative humidity. A hypodermic needle was used to make a small hole in the shell concealing the air sac, and a second hole was made on the broad side of the egg, directly over an avascular portion of the embryonic membrane that was identified by candling. A false air sac was created beneath the second hole by the application of negative pressure at the first hole, causing the CAM to separate from the shell. A window approximately 1.0 cm 2 was cut in the shell over the dropped CAM with a small-crafts grinding wheel (Dremel, division of Emerson Electric Co.), allowing direct access to the underlying CAM. FGF2 (1 μg/mL) was used as a standard proangiogenic agent to induce new blood vessel branches on the CAM of 10-day-old embryos. Sterile disks of No. 1 filter paper (Whatman International) were pretreated with 3 mg/mL cortisone acetate and 1 mmol/L PTU and air dried under sterile conditions. Thyroid hormone, hormone analogues, FGF2 or control solvents, and inhibitors were then applied to the disks and the disks allowed to dry. The disks were then suspended in PBS and placed on growing CAMs. […] At 24 hours, the MAPK cascade inhibitor PD 98059 was also added to CAMs topically by means of the filter disks.
After incubation at 37° C. with 55% relative humidity for 3 days, the CAM tissue directly beneath each filter disk was resected from control and treated CAM samples. Tissues were washed 3× with PBS, placed in 35-mm Petri dishes (Nalge Nunc), and examined under an SV6 stereomicroscope (Zeiss) at ×50 magnification. Digital images of CAM sections exposed to filters were collected using a 3-charge-coupled device color video camera system (Toshiba) and analyzed with Image-Pro software (Media Cybernetics). The number of vessel branch points contained in a circular region equal to the area of each filter disk were counted. One image was counted in each CAM preparation, and findings from 8 to 10 CAM preparations were analyzed for each treatment condition (thyroid hormone or analogues, FGF2, FGF2 antibody, PD 98059). In addition, each experiment was performed 3 times. The resulting angiogenesis index is the mean±SEM of new branch points in each set of samples.
Ten-day-old chick embryos were purchased £tom SPAFAS (Preston, Conn.) and were incubated at 37° C. with 55% relative humidity. A hypodermic needle was used to make a small hole in the blunt end of the egg and a second hole was made on the broad side of the egg, directly over an avascular portion of the embryonic membrane. Mild suction was applied to the first hole to displace the air sac and drop the CAM away from the shell. Using a Dremel model craft drill (Dremel, Racine, Wis.), a approx. 1.0 cm^2 window was cut in the shell over the false air sac, allowing access to the CAM. Sterile disks of No. 1 filter paper (Whatman, Clifton, N.J.) were pretreated with 3 mg/ml cortisone acetate and 1 mMm propylthiouracil and air dried under sterile conditions. […] The disks were then suspended in PBS and placed on growing CAMS. After incubation for 3 days, the CAM beneath the filter disk was resected and rinsed with PBS. Each membrane was placed in a 35 mm Petri dish and examined under an SV6 stereo-microscope at 50× magnification. Digital images were captured and analyzed with Image-Pro software (Mediacybemetics). The number of vessel branch points contained in a circular region equal to the filter disk were counted. One image from each of 8-10 CAM preparations for each treatment condition was counted, and in addition each experiment was performed 3 times.
Ten-day-old chick embryos were purchased from SPAFAS (Preston, Conn.) and were incubated at 37° C. with 55% relative humidity. Chick CAM assays were performed as previously described.

[3] = tested on: Human dermal micro-vascular endothelial cells (HDMEC); test: Three-dimensional human micro-vascular endothelial sprouting assay; assay type: cell-based
Method: In Vitro Three-Dimensional Sprout Angiogenesis of Human Dermal Micro-Vascular Endothelial Cells (HDMEC) Cultured on Micro-Carrier Beads Coated with Fibrin: Confluent HDMEC (passages 5-10) were mixed with gelatin-coated Cytodex-3 beads with a ratio of 40 cells per bead. Cells and beads (150-200 beads per well for 24-well plate) were suspended with 5 ml EBM+15% normal human serum, mixed gently every hour for first 4 hours, then left to culture in a CO2 incubator overnight. The next day, 10 ml of fresh EBM+5% HS were added, and the mixture was cultured for another 3 hours. Before experiments, the culture of EC-beads was checked; then 500 ul of PBS was added to a well of 24-well plate, and 100 ul of the EC-bead culture solution was added to the PBS. The number of beads was counted, and the concentration of EC/beads was calculated.
A fibrinogen solution (1 mg/ml) in EBM medium with or without angiogenesis factors or testing factors was prepared. For positive control, 50 ng/ml VEGF+25 ng/ml FGF2 was used. EC-beads were washed with EBM medium twice, and EC-beads were added to fibrinogen solution. The experiment was done in triplicate for each condition. The EC-beads were mixed gently in fibrinogen solution, and 2.5 ul human thrombin (0.05 U/ul) was added in 1 ml fibrinogen solution; 300 ul was immediately transferred to each well of a 24-well plate. The fibrinogen solution polymerizes in 5-10 minutes; after 20 minutes, we added EBM+20% normal human serum+10 ug/ml aprotinin. The plate was incubated in a CO2 incubator. It takes about 24-48 hours for HDMEC to invade fibrin gel and form tubes.
A micro-carrier in vitro angiogenesis assay previously designed to investigate bovine pulmonary artery endothelial cell angiogenic behavior in bovine fibrin gels [Nehls and Drenckhahn, 1995a, b] was modified for the study of human microvascular endothelial cell angiogenesis in three-dimensional ECM environments (FIGS. 1 and 2). Briefly, human fibrinogen, isolated as previously described [Feng et al, 1999], was dissolved in M199 medium at a concentration of 1 mg/ml (pH 7.4) and sterilized by filtering through a 0.22 micron filter. An isotonic 1.5 mg/ml collagen solution was prepared by mixing sterile Vitrogen 100 in 5×M199 medium and distilled water. The pH was adjusted to 7.4 by 1N NaOH. In certain experiments, growth factors and ECM proteins (such as VEGF, bFGF, PDGF-BB, serum, gelatin, and fibronectin) were added to the fibrinogen or collagen solutions. About 500 EC-beads were then added to the 1 mg/ml fibrinogen or 1.5 mg/ml collagen solutions. Subsequently, EC-beads-collagen or EC-beads-fibrinogen suspension (500 EC-beads/ml) was plated onto 24-well plates at 300 ul/well. EC-bead-collagen cultures were incubated at 37° C. to form gel. The gelling of EC-bead-fibrin cultures occurred in less than 5 minutes at room temperature after the addition of thrombin to a final concentration of 0.5 U/ml. After gelation, 1 ml of fresh assay medium (EBM supplemented with 20% normal human serum for HDMEC or EBM supplemented with 10% fetal bovine serum was added to each well. The angiogenic response was monitored visually and recorded by video image capture. Specifically, capillary sprout formation was observed and recorded with a Nikon Diaphot-TMD inverted microscope (Nikon Inc.; Melville, N.Y.), equipped with an incubator housing with a Nikon NP-2 thermostat and Sheldon #2004 carbon dioxide flow mixer. The microscope was directly interfaced to a video system consisting of a Dage-MTI CCD-72S video camera and Sony 12″ PVM-122 video monitor linked to a Macintosh G3 computer. The images were captured at various magnifications using Adobe Photoshop. The effect of angiogenic factors on sprout angiogenesis was quantified visually by determining the number and percent of EC-beads with capillary sprouts. One hundred beads (five to six random low power fields) in each of triplicate wells were counted for each experimental condition. All experiments were repeated at least three times. […]

[4] = tested on: HMVEC-d cells; test: Microarray analysis (Affymetrix Human U133 Plus 2.0) of HMVEC-d cells; assay type: cell-based
Method: Microarray Analysis Ten micrograms of total RNA from HMVEC-d cells was amplified and biotin-labeled according to GeneChip Expression Analysis Technical Manual (Affymetrix, Santa Clara, Calif.). Fragmented cRNA was hybridized with human gene chip U133 PLUS 2 (Affymetrix); chips were washed and stained with streptavidin R-phycoerythrin (Molecular Probes, Eugene, Oreg.). The chips were scanned and the data were analyzed with Microarray Suite and Data Mining Tool (Affymetrix).
To further identify possible mechanisms of tetrac inhibition of VEGF-stimulated angiogenesis, microarray analysis was performed using the Human U133 Plus 2.0 array from Affymetrix. HDMEC cells were incubated with VEGF at 50 ng/ml for 24 hours with and without Tetrac (3 uM). […] As shown in FIGS. 49A-C, Angiopoietin-like 1 (ANGPTL-1, probe set ID # 231773) expression was increased 5.9 fold following VEGF treatment.

[5] = hormone 0.1 uM alone, pretreated FGF2 1.25 ng/ml + VEGF […], day 3
[6] = VEGF 50 ng/ml, 24 hours, vs untreated

For [Ca+2].[Cl-].[Cl-] [Ca^+2, Calcium Chloride], the “K” value [1] was 7.0 ± 0.7 min, the “MA (mm)” value [1] was 56.5 ± 2.2 mm and the “r” value [1] was 14.5 ± 2.5 min. For the same compound, the “α (angle)” value [1] was 47.3 ± 2.7 angle.
With CCCc1cc(=O)[nH]c(=S)[nH]1 [PTU, 6-N-propyl-2-thiouracil] the “effect on angiogenesis produced by T4” value [2] was “no inhibitory effect” and the “effect on angiogenesis produced by T4” value ([2]; listed as Propylthiouracil) was “has no effect”.
For N[C@@H](Cc1cc(I)c(Oc2ccc(O)c(I)c2)c(I)c1)C(=O)O [T3, 3,5,3′-triiodo-L-thyronine], the stimulation of angiogenesis ([3]; 0.01-0.1 μM) was “significant (P<0.01) stimulation of angiogenesis”, the “Mean Tube Vessel Length (mm) ± SD” value ([3]; FGF2 25 ng + VEGF 50 ng, T3 20 ng, T4 23 ng, T4-agarose 23 ng, pre-treated with FGF2 1.25 ng/ml + VEGF […]) was 1.88 ± 0.21 mm and the “Mean number of Migrated cells ± SD” value [3, 5] was 188 ± 15. The “Mean vessel Length (mm) ± SD” value [3, 5] was 0.91 ± 0.04 mm.
For O=C(O)Cc1cc(I)c(Oc2ccc(O)c(I)c2)c(I)c1 [TRIAC, triiodothyroacetic acid], the “block of the pro-angiogenic effect of T4 or T4-agarose” value ([2]; CAM model) was 100%.
With “FGF2: human recombinant FGF2, standard proangiogenic agent” the “fold increase in angiogenesis index” value ([2]; 1 μg of FGF2) was 2-3 fold, the “fold increase in blood vessel branch formation” value ([2]; FGF2 1 μg/ml on filter disk, vs PBS) was 2.2 fold and 2.4 fold and the “fold increase in angiogenesis” value ([2]; FIG. 4 experiment with FGF2 antibody, concentration not given, 3 experiments) was 2 fold.
In the case of VEGF, the ANGPTL-3 expression ([4]; VEGF 50 ng/ml, 24 hours) is reported as “unaffected”, the “ANGPTL-1 expression, fold increase” value [4, 6] is reported as 5.9 fold and the “ANGPTL-2 expression, fold increase” value [4, 6] is reported as 1.6 fold. The “MMP-15 expression, fold increase” value ([4]; VEGF treatment) was 5.1 fold, the “MMP-19 expression, fold increase” value ([4]; VEGF treatment) was 2.9 fold and the MMP-24 expression ([4]; VEGF treatment) was “slightly decreased”.
